For one test, the target named is PIM1 (Homo sapiens, UniProt P11309). As to conditions: 1 μM; Run 1, Run 2.
Another test addresses T1, EPHA6 (Homo sapiens, UniProt Q9UF33).
T1 sequence (Q9UF33 23-1036): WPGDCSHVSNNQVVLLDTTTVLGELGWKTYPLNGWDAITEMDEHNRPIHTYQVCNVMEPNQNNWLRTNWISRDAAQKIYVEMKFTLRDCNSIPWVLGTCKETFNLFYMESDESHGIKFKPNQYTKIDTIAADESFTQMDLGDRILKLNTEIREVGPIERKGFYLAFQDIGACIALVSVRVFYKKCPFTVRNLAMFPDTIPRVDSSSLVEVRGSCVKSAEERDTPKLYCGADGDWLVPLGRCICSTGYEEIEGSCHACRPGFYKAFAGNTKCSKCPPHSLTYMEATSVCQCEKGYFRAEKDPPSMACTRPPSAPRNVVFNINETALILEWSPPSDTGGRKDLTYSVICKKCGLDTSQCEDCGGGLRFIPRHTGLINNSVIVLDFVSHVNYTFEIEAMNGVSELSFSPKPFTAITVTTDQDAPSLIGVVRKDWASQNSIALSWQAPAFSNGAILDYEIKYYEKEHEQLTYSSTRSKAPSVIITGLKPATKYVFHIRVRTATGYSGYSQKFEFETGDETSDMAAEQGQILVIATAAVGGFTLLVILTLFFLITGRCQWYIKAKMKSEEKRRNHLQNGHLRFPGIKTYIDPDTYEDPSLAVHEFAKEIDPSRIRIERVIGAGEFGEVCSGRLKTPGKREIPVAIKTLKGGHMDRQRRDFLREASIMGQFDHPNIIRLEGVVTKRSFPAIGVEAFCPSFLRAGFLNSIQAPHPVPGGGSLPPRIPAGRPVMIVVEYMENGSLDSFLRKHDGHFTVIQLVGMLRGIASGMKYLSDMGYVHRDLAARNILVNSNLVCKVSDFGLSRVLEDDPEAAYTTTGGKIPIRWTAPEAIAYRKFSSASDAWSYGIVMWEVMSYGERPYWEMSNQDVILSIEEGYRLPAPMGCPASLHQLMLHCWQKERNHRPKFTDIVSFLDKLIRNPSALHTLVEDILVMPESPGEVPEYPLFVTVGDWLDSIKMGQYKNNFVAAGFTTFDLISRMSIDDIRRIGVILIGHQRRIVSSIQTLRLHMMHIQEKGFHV
Description: biochemical. The note with it: read-out: % enzyme activity, 1 μM; Run 1, Run 2.

The target in another test is FLT4/VEGFR3 (Homo sapiens, UniProt P35916). Description: biochemical. As to conditions: read-out: % enzyme activity, 1 μM; Run 1, Run 2.
FLT4/VEGFR3, sequence (P35916 25-1363): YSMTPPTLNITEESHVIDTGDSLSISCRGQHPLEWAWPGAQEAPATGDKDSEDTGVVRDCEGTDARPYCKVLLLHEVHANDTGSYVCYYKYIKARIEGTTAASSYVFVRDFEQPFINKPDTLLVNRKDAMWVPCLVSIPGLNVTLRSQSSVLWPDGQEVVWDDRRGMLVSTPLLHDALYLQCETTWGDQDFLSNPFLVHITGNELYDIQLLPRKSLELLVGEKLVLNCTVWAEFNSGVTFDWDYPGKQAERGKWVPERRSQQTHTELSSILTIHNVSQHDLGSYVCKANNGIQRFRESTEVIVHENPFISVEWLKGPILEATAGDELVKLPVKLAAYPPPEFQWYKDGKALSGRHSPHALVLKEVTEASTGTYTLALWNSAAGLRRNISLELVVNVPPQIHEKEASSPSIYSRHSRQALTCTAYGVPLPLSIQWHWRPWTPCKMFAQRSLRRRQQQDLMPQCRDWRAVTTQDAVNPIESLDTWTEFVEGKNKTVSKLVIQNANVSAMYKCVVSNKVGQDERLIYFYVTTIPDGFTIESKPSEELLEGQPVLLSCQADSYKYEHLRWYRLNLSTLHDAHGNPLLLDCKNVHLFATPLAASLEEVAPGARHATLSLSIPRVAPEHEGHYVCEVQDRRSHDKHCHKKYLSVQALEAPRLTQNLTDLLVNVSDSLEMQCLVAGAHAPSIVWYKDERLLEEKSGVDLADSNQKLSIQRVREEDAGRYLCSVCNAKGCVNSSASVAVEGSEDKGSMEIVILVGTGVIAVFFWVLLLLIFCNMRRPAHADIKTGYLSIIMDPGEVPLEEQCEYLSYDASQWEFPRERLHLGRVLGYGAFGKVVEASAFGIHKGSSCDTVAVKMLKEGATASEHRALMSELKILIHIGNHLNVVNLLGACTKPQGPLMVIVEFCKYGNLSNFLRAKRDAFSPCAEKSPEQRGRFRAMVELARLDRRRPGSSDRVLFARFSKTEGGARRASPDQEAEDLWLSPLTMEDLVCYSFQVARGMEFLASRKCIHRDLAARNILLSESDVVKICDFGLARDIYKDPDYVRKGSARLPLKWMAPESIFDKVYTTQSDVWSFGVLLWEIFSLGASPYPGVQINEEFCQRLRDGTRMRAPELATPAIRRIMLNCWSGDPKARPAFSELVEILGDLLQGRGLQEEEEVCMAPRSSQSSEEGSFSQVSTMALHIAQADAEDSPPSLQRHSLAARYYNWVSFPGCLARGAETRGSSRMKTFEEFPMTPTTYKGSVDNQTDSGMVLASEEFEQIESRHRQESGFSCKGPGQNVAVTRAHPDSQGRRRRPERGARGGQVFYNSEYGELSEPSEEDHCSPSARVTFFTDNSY
In the next test the target is SLK/STK2 (Homo sapiens, UniProt Q9H2G2). As to conditions: 1 μM; Run 1, Run 2.
SLK/STK2, sequence (Q9H2G2 whole entry): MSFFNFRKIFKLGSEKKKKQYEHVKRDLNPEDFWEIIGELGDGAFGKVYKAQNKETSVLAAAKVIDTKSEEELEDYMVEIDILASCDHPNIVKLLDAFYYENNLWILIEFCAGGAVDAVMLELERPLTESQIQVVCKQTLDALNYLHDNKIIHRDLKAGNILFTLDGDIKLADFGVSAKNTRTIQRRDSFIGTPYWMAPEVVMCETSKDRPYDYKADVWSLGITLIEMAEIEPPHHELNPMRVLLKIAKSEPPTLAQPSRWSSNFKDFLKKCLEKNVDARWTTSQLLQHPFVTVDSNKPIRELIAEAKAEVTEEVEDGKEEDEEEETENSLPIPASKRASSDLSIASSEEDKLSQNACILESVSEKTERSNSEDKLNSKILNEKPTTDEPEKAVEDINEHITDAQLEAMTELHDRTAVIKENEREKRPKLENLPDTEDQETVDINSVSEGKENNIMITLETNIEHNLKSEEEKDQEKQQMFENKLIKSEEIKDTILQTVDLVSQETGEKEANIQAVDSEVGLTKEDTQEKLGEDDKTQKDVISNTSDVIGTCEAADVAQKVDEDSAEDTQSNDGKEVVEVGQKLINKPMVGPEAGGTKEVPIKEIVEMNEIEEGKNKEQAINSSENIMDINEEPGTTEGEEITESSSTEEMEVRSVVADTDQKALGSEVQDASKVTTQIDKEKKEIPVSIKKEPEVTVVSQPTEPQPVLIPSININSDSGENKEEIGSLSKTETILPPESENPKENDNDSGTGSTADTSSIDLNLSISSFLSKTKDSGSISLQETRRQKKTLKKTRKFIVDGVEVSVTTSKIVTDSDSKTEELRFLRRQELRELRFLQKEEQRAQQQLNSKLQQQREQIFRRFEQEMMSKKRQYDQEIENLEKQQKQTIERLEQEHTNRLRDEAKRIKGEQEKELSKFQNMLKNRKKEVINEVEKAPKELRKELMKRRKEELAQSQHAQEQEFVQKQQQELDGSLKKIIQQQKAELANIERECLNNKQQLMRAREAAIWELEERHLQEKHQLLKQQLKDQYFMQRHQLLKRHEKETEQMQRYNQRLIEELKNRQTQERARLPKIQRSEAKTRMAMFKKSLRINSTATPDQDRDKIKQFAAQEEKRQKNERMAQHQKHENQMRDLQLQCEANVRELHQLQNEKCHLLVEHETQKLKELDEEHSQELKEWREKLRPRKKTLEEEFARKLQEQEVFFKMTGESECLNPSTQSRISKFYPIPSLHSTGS
Another test has as its target MST4 (Homo sapiens, UniProt Q9P289). Description: biochemical. As to conditions: read-out: % enzyme activity, 1 μM; Run 1, Run 2.
The target of the next test is PLK1 (Homo sapiens, UniProt P53350). As to conditions: 1 μM; Run 1, Run 2.
PLK1, sequence (P53350 whole entry): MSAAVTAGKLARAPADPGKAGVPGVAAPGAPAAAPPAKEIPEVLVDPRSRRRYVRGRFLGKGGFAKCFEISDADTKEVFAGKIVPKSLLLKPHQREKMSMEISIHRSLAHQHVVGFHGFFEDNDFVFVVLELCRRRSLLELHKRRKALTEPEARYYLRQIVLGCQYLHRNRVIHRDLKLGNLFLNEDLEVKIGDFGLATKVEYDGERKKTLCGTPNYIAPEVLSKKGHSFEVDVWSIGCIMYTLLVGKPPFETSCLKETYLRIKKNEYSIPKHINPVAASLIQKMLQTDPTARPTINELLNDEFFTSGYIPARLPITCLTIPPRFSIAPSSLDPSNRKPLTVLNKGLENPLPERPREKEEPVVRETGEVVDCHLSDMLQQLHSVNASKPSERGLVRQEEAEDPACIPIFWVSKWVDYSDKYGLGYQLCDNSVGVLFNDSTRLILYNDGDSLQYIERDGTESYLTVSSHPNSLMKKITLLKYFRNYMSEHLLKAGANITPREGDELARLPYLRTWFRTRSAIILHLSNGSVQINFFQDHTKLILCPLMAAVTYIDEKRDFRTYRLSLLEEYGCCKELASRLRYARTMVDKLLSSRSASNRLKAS
In a further test the target is CDK2/cyclin O (Homo sapiens, UniProt P24941). As to the kind of experiment: biochemical. The note with it: read-out: % enzyme activity, 1 μM; Run 1, Run 2.
Another test deals with T2, SGK3/SGKL (Homo sapiens, UniProt Q96BR1).
T2 sequence (Q96BR1 1-496): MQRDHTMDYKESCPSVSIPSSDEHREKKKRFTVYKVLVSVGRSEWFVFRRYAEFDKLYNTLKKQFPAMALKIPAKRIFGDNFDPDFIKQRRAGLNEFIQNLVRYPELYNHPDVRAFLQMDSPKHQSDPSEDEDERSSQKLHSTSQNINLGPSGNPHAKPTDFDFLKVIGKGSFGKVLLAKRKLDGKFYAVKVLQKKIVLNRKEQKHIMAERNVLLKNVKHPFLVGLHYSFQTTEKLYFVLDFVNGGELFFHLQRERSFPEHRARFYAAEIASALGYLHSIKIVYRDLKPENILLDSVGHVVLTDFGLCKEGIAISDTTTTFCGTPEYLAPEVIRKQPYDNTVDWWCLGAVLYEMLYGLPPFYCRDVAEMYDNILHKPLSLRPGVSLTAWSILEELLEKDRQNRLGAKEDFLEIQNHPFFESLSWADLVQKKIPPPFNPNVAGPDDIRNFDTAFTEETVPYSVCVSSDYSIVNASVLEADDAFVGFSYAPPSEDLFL
Description: biochemical. As to conditions: read-out: % enzyme activity, 1 μM; Run 1, Run 2.

The next test deals with T3, CTK/MATK (Homo sapiens, UniProt P42679).
T3 sequence (P42679 1-507): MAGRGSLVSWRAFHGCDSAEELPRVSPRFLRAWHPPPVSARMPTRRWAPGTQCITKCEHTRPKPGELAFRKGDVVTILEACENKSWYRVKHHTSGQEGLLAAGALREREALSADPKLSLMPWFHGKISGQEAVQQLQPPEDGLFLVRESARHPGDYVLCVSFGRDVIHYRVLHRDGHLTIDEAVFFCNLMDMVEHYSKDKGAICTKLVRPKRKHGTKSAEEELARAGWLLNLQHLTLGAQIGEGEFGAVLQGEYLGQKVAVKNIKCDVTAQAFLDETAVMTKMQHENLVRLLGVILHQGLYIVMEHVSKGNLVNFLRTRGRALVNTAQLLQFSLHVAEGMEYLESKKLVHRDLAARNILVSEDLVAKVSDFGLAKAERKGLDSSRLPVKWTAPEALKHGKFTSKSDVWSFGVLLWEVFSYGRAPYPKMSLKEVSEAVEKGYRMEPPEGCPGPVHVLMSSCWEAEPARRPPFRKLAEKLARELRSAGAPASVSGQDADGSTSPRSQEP
Description: biochemical. As to conditions: read-out: % enzyme activity, 1 μM; Run 1, Run 2.

Where “and” joins values, the source holds several entries; their conditions need not be identical. Equal values may be shown once.

MST4, sequence (Q9P289 whole entry): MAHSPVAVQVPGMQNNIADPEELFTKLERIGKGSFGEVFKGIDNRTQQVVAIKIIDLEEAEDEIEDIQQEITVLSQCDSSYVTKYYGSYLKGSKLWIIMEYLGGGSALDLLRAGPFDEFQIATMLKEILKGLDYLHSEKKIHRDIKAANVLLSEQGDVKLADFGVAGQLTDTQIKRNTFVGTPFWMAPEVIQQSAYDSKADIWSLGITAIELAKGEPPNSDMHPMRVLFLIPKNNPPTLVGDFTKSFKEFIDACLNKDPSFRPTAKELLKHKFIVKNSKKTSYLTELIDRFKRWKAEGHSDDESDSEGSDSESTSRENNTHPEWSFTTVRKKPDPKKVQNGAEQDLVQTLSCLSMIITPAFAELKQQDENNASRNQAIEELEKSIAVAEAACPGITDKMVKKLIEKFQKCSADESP
PIM1, sequence (P11309 whole entry): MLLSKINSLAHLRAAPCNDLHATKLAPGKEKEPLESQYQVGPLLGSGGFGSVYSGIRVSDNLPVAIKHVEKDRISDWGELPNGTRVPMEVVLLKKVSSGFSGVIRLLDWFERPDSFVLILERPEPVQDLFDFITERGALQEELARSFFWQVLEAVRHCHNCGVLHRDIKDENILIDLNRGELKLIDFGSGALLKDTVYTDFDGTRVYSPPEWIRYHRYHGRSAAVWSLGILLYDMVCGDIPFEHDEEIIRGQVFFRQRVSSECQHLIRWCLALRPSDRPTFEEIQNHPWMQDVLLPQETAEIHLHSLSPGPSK

Regarding `COc1cc(-c2cncc(-c3ccc(N4C[C@@H](C)N(C)[C@@H](C)C4)cc3)c2C)cc(F)c1C(N)=O` [Compound 26c, 2-Fluoro-6-methoxy-4-(4-methyl-5-(4-((3R,5S)-3,4,5-trimethylpiperazin-1-yl)phenyl)pyridin-3-yl)benzamide], the “% enzyme activity” value at PIM1 came out at 92.25%; on SLK/STK2, 100.64%; on PLK1 it was 92.70%. In addition, the remaining activity at 1 µM was determined as 106% at EPHA6; 97.1% on FLT4/VEGFR3; 95% at MST4; 92.7% on CDK2/cyclin O; 94.8% at SGK3/SGKL; 99.2% on CTK/MATK. Further, the % enzyme activity at 1 μM with HGK/MAP4K4 was 30.6% and 28.4%.
Regarding `COc1cc(-c2cncc(-c3ccc(N4CCN(C)CC4)cc3)c2C)cc(F)c1C(N)=O` [Compound 26a, 2-Fluoro-6-methoxy-4-(4-methyl-5-(4-(4-methylpiperazin-1-yl)phenyl)pyridin-3-yl)benzamide], the “% enzyme activity” value on PIM1 is recorded as 97.92%; at SLK/STK2, 96.16%; on PLK1 it was 91.24%. For the same compound, the remaining activity at 1 µM at EPHA6 came out at 105%; on FLT4/VEGFR3, 98.4%; on MST4, 86.9%; on CDK2/cyclin O, 95.1%; on SGK3/SGKL, 103%; on CTK/MATK, 95.2%. Also, the % enzyme activity at 1 μM in the test on HGK/MAP4K4 is 22% and 21%.
